Legend:
[1] = logP determination by HPLC on a reversed-phase column (C18); type: physicochemical; settings: for logP^a): HPLC-MS method a); for log P: HPLC-MS
Ctenocephalides felis [2] = test: Ctenocephalides felis - in vitro contact tests with adult cat fleas; type: in vivo; settings: application rate 5 μg/cm2 (=500 g/ha); after 48 h; fleas dead or moribund
Description: For the coating of the test tubes, 9 mg of active ingredient are first dissolved in 1 ml of acetone p.a. and then diluted to the desired concentration with acetone p.a. 250 μl of the solution are distributed homogeneously on the inner walls and base of a 25 ml test tube by turning and rocking on an orbital shaker (rocking rotation at 30 rpm for 2 h). With 900 ppm active ingredient solution and internal surface area 44.7 cm^2, given homogeneous distribution, an area-based dose of 5 μg/cm^2 is achieved.
After the solvent has evaporated off, the tubes are populated with 5-10 adult cat fleas (Ctenocephalides felis), sealed with a perforated plastic lid and incubated in a horizontal position at room temperature and ambient humidity. After 48 h, efficacy is determined. To this end, the test tubes are stood upright and the fleas are knocked to the base of the tube. Fleas which remain motionless at the base or move in an uncoordinated manner are considered to be dead or moribund.
100% efficacy means that all the fleas were dead or moribund. 0% efficacy means that no fleas were harmed.

Boophilus microplus = Boophilus microplus - injection test; type: in vivo; settings: application rate 20 μg/animal, injection into engorged adult female ticks, after 7 days
How it was run: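 Active ingredient in DMSO, 1 μl injected into the abdomen of 5 engorged adult female ticks, then held in a climate-controlled room. Efficacy scored after 7 days from laying of fertile eggs, with non-fertile-looking eggs kept about 42 days for larval hatch; 100% means no fertile eggs.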

Ctenocephalides felis [3] = test: Ctenocephalides felis - oral test; type: in vivo; settings: application rate 100 ppm in citrated cattle blood; after 2 days
How it was run: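 Compound in DMSO diluted into citrated cattle blood, fed through a parafilm membrane to about 20 unfed adult cat fleas. Kill in % scored after 2 days (100% = all dead).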

Lucilia cuprina = Lucilia cuprina test; type: in vivo; settings: application rate 100 ppm; L1 larvae; after 2 days
How it was run: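 About 20 L1 larvae placed on minced horsemeat treated with compound, formulated in DMSO and diluted with water to test concentration. Kill in % scored after 2 days (100% = all larvae dead, 0% = none).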

Musca domestica = Musca domestica test; type: in vivo; settings: application rate 100 ppm; adult houseflies; after 2 days
How it was run: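 Compound in DMSO, diluted with water, applied to a sugar-solution sponge; vessels hold 10 adult houseflies. Percent mortality scored after 2 days.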

Myzus persicae = Myzus persicae - spray test; type: in vivo; settings: Chinese cabbage leaf discs, after 6 days
Description: Solvent: 78 parts by weight of acetone and 1.5 parts by weight of dimethylformamide
Emulsifier: alkylaryl polyglycol ether
To produce an appropriate active ingredient formulation, 1 part by weight of active ingredient is dissolved using the specified parts by weight of solvent and made up with water containing an emulsifier concentration of 1000 ppm until the desired concentration is attained. To produce further test concentrations, the preparation is diluted with emulsifier-containing water.
Discs of Chinese cabbage leaves (Brassica pekinensis) infested by all stages of the green peach aphid (Myzus persicae) are sprayed with an active ingredient formulation of the desired concentration.
After 6 days, efficacy in % is determined. 100% means that all the aphids have been killed; 0% means that none of the aphids have been killed.

Phaedon cochleariae = Phaedon cochleariae - spray test; type: in vivo; settings: larvae on Chinese cabbage leaf discs, after 7 days
How it was run: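 Chinese cabbage leaf discs sprayed with compound formulated in acetone/DMF and water containing 1000 ppm emulsifier; once dry, infested with mustard beetle larvae. Efficacy (% larvae killed) scored after 7 days.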

Spodoptera frugiperda = Spodoptera frugiperda - spray test; type: in vivo; settings: caterpillars on maize leaf discs, after 7 days
How it was run: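 Maize leaf discs sprayed with compound formulated in acetone/DMF and diluted in water containing 1000 ppm alkylaryl polyglycol ether emulsifier, then infested with armyworm caterpillars after drying. Efficacy scored after 7 days as % caterpillars killed (100% all, 0% none).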

Tetranychus urticae = Tetranychus urticae - spray test, OP-resistant; type: in vivo; settings: bean leaf discs, after 6 days
How it was run: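 Compound dissolved in acetone/DMF, diluted with water containing 1000 ppm alkylaryl polyglycol ether emulsifier to test concentrations. Bean leaf discs infested with all stages of spider mites were sprayed; % kill determined after 6 days (100% = all mites dead, 0% = none).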

[4] = tested on: Boophilus microplus Parkhurst strain, SP-resistant; test: Boophilus microplus - dip test; type: in vivo; settings: application rate 100 ppm; dip of engorged adult female ticks; after 7 days
Description: Test animals: cattle ticks (Boophilus microplus) Parkhurst strain, SP-resistant
Solvent: dimethyl sulphoxide
10 mg of active ingredient are dissolved in 0.5 ml of dimethyl sulphoxide. For the purpose of producing a suitable formulation, the active ingredient solution is diluted with water to the concentration desired in each case.
This active ingredient formulation is pipetted into tubes. 8-10 adult engorged female cattle ticks (Boophilus microplus) are transferred into a further tube with holes. The tube is immersed into the active ingredient formulation, and all the ticks are completely wetted. After the liquid has run out, the ticks are transferred on filter discs into plastic dishes and stored in a climate-controlled room.
Efficacy is assessed after 7 days by laying of fertile eggs. Eggs which are not visibly fertile are stored in a climate-controlled cabinet until the larvae hatch after about 42 days. An efficacy of 100% means that none of the ticks has laid any fertile eggs; 0% means that all the eggs are fertile.

[5] = reversed-phase column (C18), Table I-T3

SMILES: Cc1cc(C(F)(C(F)(F)F)C(F)(F)F)cc(C(F)(F)F)c1-n1cc(-c2ccc(Cl)c(C(=O)NC3CSC3)c2)cn1 [I-T3-85]
- logP^a) [1]: 4.7
- logP^a) [1, 5]: 4.7
- efficacy (Ctenocephalides felis [2]): 100%
- efficacy (laying of fertile eggs) (Boophilus microplus): 100%
- efficacy (kill) (Ctenocephalides felis [3]): 100%
- efficacy (kill) (Lucilia cuprina): 100%
- efficacy (kill) (Musca domestica): 100%
- efficacy (Myzus persicae; application rate 100 g/ha): 90%
- efficacy (Phaedon cochleariae; application rate 100 g/ha): 100%
- efficacy (Spodoptera frugiperda; application rate 100 g/ha): 100%
- efficacy (Tetranychus urticae; application rate 100 g/ha): 100%

SMILES: CCN(C(=O)c1cc(-c2cnn(-c3c(Cl)cc(C(F)(F)F)cc3Cl)c2)cnc1Cl)C1CC1 [I-T3-145]
- logP^a) ([1]; reversed-phase column (C18)): 3.8
- log P [1, 5]: 3.8
- efficacy (Ctenocephalides felis [2]): 100%
- efficacy (laying of fertile eggs) (Boophilus microplus): 100%
- efficacy (kill) (Ctenocephalides felis [3]): 100%
- efficacy (kill) (Lucilia cuprina): 100%
- efficacy (kill) (Musca domestica): 90%
- efficacy (Myzus persicae; application rate 100 g/ha): 90%
- efficacy (Phaedon cochleariae; application rate 100 g/ha): 100%
- efficacy (Spodoptera frugiperda; application rate 100 g/ha): 100%
- efficacy (Tetranychus urticae; application rate 100 g/ha): 100%

SMILES: Cc1cc(C(F)(C(F)(F)F)C(F)(F)F)cc(C)c1-n1cc(-c2cncc(C(=O)NC3CC3)c2)cn1 [I-T3-7]
- logP^a) [1]: 3.4
- logP^a) [1, 5]: 3.4
- efficacy (Ctenocephalides felis [2]): 100%
- efficacy (laying of fertile eggs) (Boophilus microplus): 100%
- efficacy (kill) (Ctenocephalides felis [3]): 100%
- efficacy (kill) (Lucilia cuprina): 100%
- efficacy (kill) (Musca domestica): 80%
- efficacy (Myzus persicae; application rate 500 g/ha): 100%
- efficacy (Phaedon cochleariae; application rate 500 g/ha): 100%
- efficacy (Spodoptera frugiperda; application rate 500 g/ha): 100%
- efficacy (Tetranychus urticae; application rate 500 g/ha): 100%

SMILES: CCc1cc(C(F)(C(F)(F)F)C(F)(F)F)ccc1-n1cc(-c2ccc(Cl)c(C(=O)NC3CC3)c2)cn1 [I-T3-39]
- logP^a) [1]: 4.6
- logP^a) [1, 5]: 4.6
- efficacy (laying of fertile eggs) (Boophilus microplus): 100%
- efficacy (laying of fertile eggs) [4]: 100%
- efficacy (kill) (Ctenocephalides felis [3]): 100%
- efficacy (kill) (Lucilia cuprina): 100%
- efficacy (Myzus persicae; application rate 100 g/ha): 90%
- efficacy (Phaedon cochleariae; application rate 100 g/ha): 100%
- efficacy (Spodoptera frugiperda; application rate 100 g/ha): 100%
- efficacy (Tetranychus urticae; application rate 100 g/ha): 100%

SMILES: Cc1cc(C(F)(C(F)(F)F)C(F)(F)F)cc(C)c1-n1cc(-c2cccc(C(=O)NC3CC3)c2)cn1 [I-T3-29]
- logP^a) [1]: 3.3
- logP^a) [1, 5]: 3.3
- efficacy (Ctenocephalides felis [2]): 100%
- efficacy (laying of fertile eggs) (Boophilus microplus): 100%
- efficacy (kill) (Ctenocephalides felis [3]): 100%
- efficacy (kill) (Lucilia cuprina): 100%
- efficacy (kill) (Musca domestica): 100%
- efficacy (Myzus persicae; application rate 500 g/ha): 90%
- efficacy (Phaedon cochleariae; application rate 500 g/ha): 100%
- efficacy (Spodoptera frugiperda; application rate 500 g/ha): 100%
- efficacy (Tetranychus urticae; application rate 500 g/ha): 100%

SMILES: O=C(NC1CC1)c1cc(-c2cnn(-c3c(F)cc(C(F)(F)F)cc3F)c2)ccc1Cl [I-T3-48, 2-chloro-N-cyclopropyl-5-[1-[2,6-difluoro-4-(trifluoromethyl)phenyl]pyrazol-4-yl]benzamide]
- pest or weed control at 0.02 mg (Boophilus microplus; Rhipicephalus microplus, 168 h, read-out: efficacy (laying of fertile eggs)): 100%
- efficacy (laying of fertile eggs) [4]: 100%
- efficacy (kill) (Musca domestica): 100%

SMILES: Cc1ncc(-c2cnn(-c3c(Cl)cc(C(F)(F)F)cc3Cl)c2)cc1C(=O)N(C)C1(C#N)CC1 [I-T3-132]
- logP^a) ([1]; reversed-phase column (C18)): 2.9
- log P [1, 5]: 2.9
- efficacy (Ctenocephalides felis [2]): 100%
- efficacy (laying of fertile eggs) (Boophilus microplus): 100%
- efficacy (kill) (Ctenocephalides felis [3]): 100%
- efficacy (Myzus persicae; application rate 100 g/ha): 90%
- efficacy (Phaedon cochleariae; application rate 100 g/ha): 100%
- efficacy (Tetranychus urticae; application rate 100 g/ha): 100%

SMILES: CCc1cc(C(F)(C(F)(F)F)C(F)(F)F)cc(C)c1-n1cc(-c2cncc(C(=O)NC3CC3)c2)cn1 [I-T3-77]
- logP^a) [1]: 3.4
- logP^a) [1, 5]: 3.4
- efficacy (laying of fertile eggs) (Boophilus microplus): 100%
- efficacy (kill) (Ctenocephalides felis [3]): 100%
- efficacy (kill) (Lucilia cuprina): 100%
- efficacy (kill) (Musca domestica): 100%
- efficacy (Myzus persicae; application rate 100 g/ha): 100%
- efficacy (Phaedon cochleariae; application rate 500 g/ha): 100%
- efficacy (Spodoptera frugiperda; application rate 500 g/ha): 100%
- efficacy (Tetranychus urticae; application rate 500 g/ha): 100%

SMILES: Cc1ncc(-c2cnn(-c3c(Cl)cc(C(F)(C(F)(F)F)C(F)(F)F)cc3Cl)c2)cc1C(=O)N(C)C1CC1 [I-T3-133]
- logP^a) ([1]; reversed-phase column (C18)): 3.7
- log P [1, 5]: 3.7
- efficacy (Ctenocephalides felis [2]): 100%
- efficacy (laying of fertile eggs) (Boophilus microplus): 100%
- efficacy (laying of fertile eggs) [4]: 100%
- efficacy (kill) (Ctenocephalides felis [3]): 100%
- efficacy (kill) (Lucilia cuprina): 100%
- efficacy (kill) (Musca domestica): 100%
- efficacy (Phaedon cochleariae; application rate 100 g/ha): 100%
- efficacy (Spodoptera frugiperda; application rate 100 g/ha): 100%
- efficacy (Tetranychus urticae; application rate 100 g/ha): 100%

SMILES: Cc1ncc(-c2cnn(-c3c(Cl)cc(C(F)(F)F)cc3Cl)c2)cc1C(=O)NC1(C#N)CC1 [I-T3-129]
- logP^a) ([1]; reversed-phase column (C18)): 2.6
- log P [1, 5]: 2.6
- efficacy (Ctenocephalides felis [2]): 100%
- efficacy (laying of fertile eggs) (Boophilus microplus): 100%
- efficacy (kill) (Ctenocephalides felis [3]): 100%
- efficacy (kill) (Musca domestica): 80%
- efficacy (Myzus persicae; application rate 100 g/ha): 100%
- efficacy (Phaedon cochleariae; application rate 100 g/ha): 100%
- efficacy (Tetranychus urticae; application rate 100 g/ha): 100%

SMILES: Cc1ncc(-c2cnn(-c3c(Cl)cc(C(F)(F)F)cc3Cl)c2)cc1C(=O)N(C)C1CC1 [I-T3-128]
- logP^a) ([1]; reversed-phase column (C18)): 2.8
- log P [1, 5]: 2.8
- efficacy (Ctenocephalides felis [2]): 100%
- efficacy (laying of fertile eggs) (Boophilus microplus): 100%
- efficacy (kill) (Ctenocephalides felis [3]): 100%
- efficacy (Myzus persicae; application rate 100 g/ha): 100%
- efficacy (Phaedon cochleariae; application rate 100 g/ha): 100%

SMILES: Cc1ncc(-c2cnn(-c3c(Cl)cc(C(F)(F)F)cc3Cl)c2)cc1C(=O)NC1CC1 [I-T3-127]
- logP^a) ([1]; reversed-phase column (C18)): 2.5
- log P [1, 5]: 2.5
- efficacy (Ctenocephalides felis [2]): 100%
- efficacy (laying of fertile eggs) (Boophilus microplus): 100%
- efficacy (kill) (Ctenocephalides felis [3]): 100%
- efficacy (kill) (Lucilia cuprina): 90%
- efficacy (Myzus persicae; application rate 100 g/ha): 100%
- efficacy (Phaedon cochleariae; application rate 100 g/ha): 100%
- efficacy (Tetranychus urticae; application rate 100 g/ha): 100%

SMILES: CCc1cc(C(F)(C(F)(F)F)C(F)(F)F)cc(C)c1-n1cc(-c2cncc(C(=O)NC3(C#N)CC3)c2)cn1 [I-T3-76]
- logP^a) [1]: 3.4
- logP^a) [1, 5]: 3.4
- efficacy (laying of fertile eggs) (Boophilus microplus): 100%
- efficacy (kill) (Ctenocephalides felis [3]): 100%
- efficacy (kill) (Lucilia cuprina): 90%
- efficacy (kill) (Musca domestica): 90%
- efficacy (Myzus persicae; application rate 100 g/ha): 90%
- efficacy (Phaedon cochleariae; application rate 500 g/ha): 100%
- efficacy (Spodoptera frugiperda; application rate 500 g/ha): 100%
- efficacy (Tetranychus urticae; application rate 500 g/ha): 100%

SMILES: N#CC1(NC(=O)c2cc(-c3cnn(-c4c(Cl)cc(OC(F)(F)F)cc4Cl)c3)ccc2Cl)CC1 [I-T3-87]
- logP^a) [1]: 3.6
- logP^a) [1, 5]: 3.6
- efficacy (Ctenocephalides felis [2]): 100%
- efficacy (laying of fertile eggs) (Boophilus microplus): 100%
- efficacy (kill) (Ctenocephalides felis [3]): 100%
- efficacy (kill) (Lucilia cuprina): 100%
- efficacy (kill) (Musca domestica): 100%
- efficacy (Myzus persicae; application rate 100 g/ha): 90%
- efficacy (Phaedon cochleariae; application rate 100 g/ha): 100%
- efficacy (Spodoptera frugiperda; application rate 100 g/ha): 100%
- efficacy (Tetranychus urticae; application rate 100 g/ha): 100%
